experiment: In vitro pharmacokinetic (metabolic) stability in human whole blood; type: in vitro ADME; settings: 5 μM test compound, 37° C., time points 0, 0.5, 1, 4, 6 and 24 hours, LC/MS/MS, percent compound remaining
Description: In Vitro Pharmacokinetic Stability Evaluation
Compounds were tested for metabolic stability in human whole blood. Such testing is commonly undertaken prior to or along with advanced preclinical testing in order to identify compounds with desirable pharmacokinetic properties. Into each of 6 centrifuge tubes was added 2 μL of test compound and 198 μL of human whole blood, taken from normal, healthy volunteers, to achieve a final concentration of 5 μM. Tubes were then incubated at 37° C. at approximately 100 rpm on an orbital shaker. One of the tubes was taken at designated time points including 0, 0.5, 1, 4, 6 and 24 hours. The reaction was stopped by the addition of 4 volumes of cold methanol. Samples were centrifuged at 20,000 rpm for 20 minutes to precipitate protein. A 200 μL aliquot of the supernatant was used for LC/MS/MS analysis for each compound at each time point. All experiments were performed in duplicate. The LC system comprised a Shimadzu liquid chromatograph separation system equipped with degasser DGU-20A3, solvent delivery unit LC-20AD, system controller CBM-20A, column oven CTO-10ASVP and CTC Analytics HTC PAL System. Mass spectrometric analysis was performed using an API 4000 instrument from AB Inc. (Canada) with an ESI interface. The data acquisition and control system were created using Analyst 1.5 software from ABI Inc. All calculations were carried out using Microsoft Excel (2003). Percent compound remaining at each time point was estimated by determining the peak areas from extracted ion chromatograms.

Compound | Half Life [h]
COCCOCCOCCOc1cccc(C2=N[C@@](C)(C(=O)OC(C)C)CS2)c1O [Example 1, (S)-isopropyl 2-(2-hydroxy-3-(2-(2-(2-methoxyethoxy)ethoxy)ethoxy)phenyl)-4-methyl-4,5-dihydrothiazole-4-carboxylate] | 1 to 4
COCCOCCOCCOc1cccc(C2=N[C@@](C)(C(=O)OC(C)C)CS2)c1OC(=O)N1CCCC1 [Example 2, (S)-isopropyl 2-(3-(2-(2-(2-methoxyethoxy)ethoxy)ethoxy)-2-(pyrrolidine-1-carbonyloxy)phenyl)-4-methyl-4,5-dihydrothiazole-4-carboxylate] | >24
COCCOCCOCCOc1cccc(C2=N[C@@](C)(C(=O)O)CS2)c1OC(=O)N1CCCC1 [Example 3, (S)-2-(3-(2-(2-(2-methoxyethoxy)ethoxy)ethoxy)-2-(pyrrolidine-1-carbonyloxy)phenyl)-4-methyl-4,5-dihydrothiazole-4-carboxylic acid] | 1 to 4
COCCOCCOCCOc1cccc(C2=N[C@@](C)(C(=O)OC(C)C)CS2)c1OC(=O)N(C)c1ccccc1 [Example 4, (S)-isopropyl 2-(3-(2-(2-(2-methoxyethoxy)ethoxy)ethoxy)-2-(methyl(phenyl)carbamoyloxy)phenyl)-4-methyl-4,5-dihydrothiazole-4-carboxylate] | >24
COCCOCCOCCOc1cccc(C2=N[C@@](C)(C(=O)O)CS2)c1OC(=O)N(C)c1ccccc1 [Example 5, (S)-2-(3-(2-(2-(2-methoxyethoxy)ethoxy)ethoxy)-2-(methyl(phenyl)carbamoyloxy)phenyl)-4-methyl-4,5-dihydrothiazole-4-carboxylic acid] | 0.5 to 1
COCCOCCOCCOc1cccc(C2=N[C@@](C)(C(=O)O)CS2)c1OC(=O)C(C)C [Example 6, (S)-2-(2-(isobutyryloxy)-3-(2-(2-(2-methoxyethoxy)ethoxy)ethoxy)phenyl)-4-methyl-4,5-dihydrothiazole-4-carboxylic acid] | 6 to 24
